Measured values taken from ChEMBL document CHEMBL3091348, “Discovery of an intravenous hepatoselective glucokinase activator for the treatment of inpatient hyperglycemia” (Bioorg Med Chem Lett, 2013).
pEC50, pIC50: −log10 of the molar value. Converted amounts (≈) assume the structure as drawn. Blank lines part the entries; values can stand above or below the compound they belong to.

Experiments:
[1] = Intrinsic clearance in human liver microsomes; assay type: ADME; details: read-out: CLH
[2] = Organic anion transporter-mediated drug uptake in rat hepatocytes assessed as active uptake; assay type: ADME, cell-based, Hepatocyte
[3] = Organic anion transporter-mediated drug uptake in rat hepatocytes assessed as passive uptake; assay type: ADME, cell-based, Hepatocyte
[4] = Organic anion transporter-mediated drug uptake in rat hepatocytes assessed as total uptake; assay type: ADME, cell-based, Hepatocyte
[5] = Apparent permeability in RRCK cells at pH 5.5; assay type: ADME, cell-based, Canis lupus familiaris, MDCKII-LE; details: dog, MDCK
[6] = Apparent permeability in RRCK cells at pH 6.5; assay type: ADME, cell-based, Canis lupus familiaris, MDCKII-LE; details: dog, MDCK
[7] = Apparent permeability in RRCK cells at pH 7.4; assay type: ADME, cell-based, Canis lupus familiaris, MDCKII-LE; details: dog, MDCK
OATP1B3 = biological target: T1, OATP1B3 (Homo sapiens, UniProt Q9NPD5); assay: Activity at OATP1B3 (unknown origin) transfected in HEK cells assessed as transporter-mediated cellular uptake relative to mock-transfected HEK cells; assay type: ADME, cell-based; details: HEK293 cells transfected with OATP1B3, read-out: FC
T1 sequence (Q9NPD5 whole entry): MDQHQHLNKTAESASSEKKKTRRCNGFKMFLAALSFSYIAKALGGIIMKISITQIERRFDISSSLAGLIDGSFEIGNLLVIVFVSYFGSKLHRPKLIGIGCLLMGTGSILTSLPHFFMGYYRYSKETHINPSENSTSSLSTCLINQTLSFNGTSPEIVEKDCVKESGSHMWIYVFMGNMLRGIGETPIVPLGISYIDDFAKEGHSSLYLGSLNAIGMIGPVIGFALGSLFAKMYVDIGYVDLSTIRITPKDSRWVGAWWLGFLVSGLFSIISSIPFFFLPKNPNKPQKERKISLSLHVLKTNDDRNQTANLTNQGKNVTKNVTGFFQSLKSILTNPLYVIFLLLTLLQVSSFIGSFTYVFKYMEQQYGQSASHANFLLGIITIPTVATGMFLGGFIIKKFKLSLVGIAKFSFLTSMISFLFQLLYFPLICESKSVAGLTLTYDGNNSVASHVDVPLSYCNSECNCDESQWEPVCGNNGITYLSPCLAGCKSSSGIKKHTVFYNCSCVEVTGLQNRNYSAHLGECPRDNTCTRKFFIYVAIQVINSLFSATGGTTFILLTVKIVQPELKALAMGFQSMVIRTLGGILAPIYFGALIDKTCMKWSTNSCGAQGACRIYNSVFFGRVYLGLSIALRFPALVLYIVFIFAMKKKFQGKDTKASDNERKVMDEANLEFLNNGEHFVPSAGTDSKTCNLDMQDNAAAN

OATP1B1 = biological target: T2, OATP1B1 (Homo sapiens, UniProt Q9Y6L6); assay: Activity at OATP1B1 (unknown origin) transfected in HEK cells assessed as transporter-mediated cellular uptake relative to mock-transfected HEK cells; assay type: ADME, cell-based; details: HEK293 cells transfected with OATP1B1, read-out: FC
T2 sequence (Q9Y6L6 whole entry): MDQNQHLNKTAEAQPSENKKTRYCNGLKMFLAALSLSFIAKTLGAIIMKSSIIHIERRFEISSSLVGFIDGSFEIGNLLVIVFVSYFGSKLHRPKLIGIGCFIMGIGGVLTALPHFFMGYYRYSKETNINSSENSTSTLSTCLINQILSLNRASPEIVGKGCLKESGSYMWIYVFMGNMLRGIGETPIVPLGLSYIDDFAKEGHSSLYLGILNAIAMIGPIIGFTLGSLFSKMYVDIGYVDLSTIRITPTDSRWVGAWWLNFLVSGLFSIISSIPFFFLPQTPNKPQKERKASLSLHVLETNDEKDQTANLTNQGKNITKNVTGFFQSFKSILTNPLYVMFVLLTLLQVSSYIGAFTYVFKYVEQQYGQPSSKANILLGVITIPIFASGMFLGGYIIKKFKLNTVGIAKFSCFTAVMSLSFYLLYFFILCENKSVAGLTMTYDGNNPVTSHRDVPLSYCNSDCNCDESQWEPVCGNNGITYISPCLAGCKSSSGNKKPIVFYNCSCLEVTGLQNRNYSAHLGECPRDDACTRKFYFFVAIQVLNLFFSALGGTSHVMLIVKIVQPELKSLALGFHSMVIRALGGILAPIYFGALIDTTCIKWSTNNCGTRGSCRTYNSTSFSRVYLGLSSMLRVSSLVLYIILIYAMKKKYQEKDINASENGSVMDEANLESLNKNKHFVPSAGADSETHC

Hexokinase-4 [8] = biological target: T3, Hexokinase-4 (Rattus norvegicus, UniProt P17712); assay: Activation of glucokinase in Wistar rat hepatocytes assessed as nuclear to cytosolic translocation of protein by immunofluorescence assay; assay type: cell-based, Hepatocyte
T3 sequence (P17712 whole entry): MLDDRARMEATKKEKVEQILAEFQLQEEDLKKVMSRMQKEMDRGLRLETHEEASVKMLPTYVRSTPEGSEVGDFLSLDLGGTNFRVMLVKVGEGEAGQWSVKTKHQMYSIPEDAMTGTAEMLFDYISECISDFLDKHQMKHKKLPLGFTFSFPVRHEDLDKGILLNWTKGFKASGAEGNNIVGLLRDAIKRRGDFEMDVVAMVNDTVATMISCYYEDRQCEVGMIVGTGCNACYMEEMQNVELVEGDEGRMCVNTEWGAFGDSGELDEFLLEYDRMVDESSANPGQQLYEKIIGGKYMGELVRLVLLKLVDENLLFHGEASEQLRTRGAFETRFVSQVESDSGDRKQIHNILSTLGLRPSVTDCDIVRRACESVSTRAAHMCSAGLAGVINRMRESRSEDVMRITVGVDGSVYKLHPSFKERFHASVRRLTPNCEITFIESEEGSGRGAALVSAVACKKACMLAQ

Rattus norvegicus [9] = assay: Antidiabetic activity in Goto-Kakizaki rat diabetic model assessed as reduction in glucose excursion AUC at 24 mg/kg, iv administered as infusion for 4 hrs measured after 2 hrs by oral glucose tolerance test relative to control; assay type: functional; set-up: scale not given: the % may be the effect or the level left
Rattus norvegicus [10] = assay: Antihyperglycemic activity in rat assessed as liver to plasma AUC ratio at EC50 dose, iv administered as infusion up to 4 days; assay type: functional
Rattus norvegicus [11] = assay: Antihyperglycemic activity in rat assessed as liver to plasma AUC ratio at 5 mg/kg, iv administered as bolus after 1 to 6 hrs; assay type: functional
[12] = Oral bioavailability in dog at 5 mg/kg; assay type: ADME, organism-based, Canis lupus familiaris; details: in vivo
[13] = Oral bioavailability in rat at 5 mg/kg; assay type: ADME, organism-based; details: in vivo
[14] = Volume of distribution at steady state in dog at 1 mg/kg, iv; assay type: ADME, organism-based, Canis lupus familiaris; set-up: dose 1 mg/kg, route intravenous; details: in vivo, read-out: Vdss
[15] = Volume of distribution at steady state in rat at 1 mg/kg, iv; assay type: ADME, organism-based; set-up: dose 1 mg/kg, route intravenous; details: in vivo, read-out: Vdss
[16] = Half life in dog at 1 mg/kg, iv; assay type: ADME, organism-based, Canis lupus familiaris; set-up: dose 1 mg/kg, route intravenous; details: in vivo
[17] = Half life in rat at 1 mg/kg, iv; assay type: ADME, organism-based; set-up: dose 1 mg/kg, route intravenous; details: in vivo
[18] = Clearance in dog at 1 mg/kg, iv; assay type: ADME, organism-based, Canis lupus familiaris; set-up: dose 1 mg/kg, route intravenous; details: in vivo
[19] = Clearance in rat at 1 mg/kg, iv; assay type: ADME, organism-based; set-up: dose 1 mg/kg, route intravenous; details: in vivo
[20] = Cmax in dog at 5 mg/kg, po; assay type: ADME, organism-based, Canis lupus familiaris; set-up: dose 5 mg/kg, route oral; details: in vivo
[21] = Cmax in dog at 1 mg/kg, iv; assay type: ADME, organism-based, Canis lupus familiaris; set-up: dose 1 mg/kg, route intravenous; details: in vivo
[22] = Cmax in rat at 5 mg/kg, po; assay type: ADME, organism-based; set-up: dose 5 mg/kg, route oral; details: in vivo
[23] = Cmax in rat at 1 mg/kg, iv; assay type: ADME, organism-based; set-up: dose 1 mg/kg, route intravenous; details: in vivo
[24] = AUC (0 to 24 hrs) in dog at 5 mg/kg, po; assay type: ADME, organism-based, Canis lupus familiaris; set-up: time < 24 hr, dose 5 mg/kg, route oral; details: plasma
[25] = AUC (0 to 24 hrs) in dog at 1 mg/kg, iv; assay type: ADME, organism-based, Canis lupus familiaris; set-up: time < 24 hr, dose 1 mg/kg, route intravenous; details: plasma
[26] = AUC (0 to 24 hrs) in rat at 1 mg/kg, iv; assay type: ADME, organism-based; set-up: time < 24 hr, dose 1 mg/kg, route intravenous; details: plasma
[27] = AUC (0 to 24 hrs) in rat at 5 mg/kg, po; assay type: ADME, organism-based; set-up: time < 24 hr, dose 5 mg/kg, route oral; details: plasma
Hexokinase-4 [28] = biological target: T3, Hexokinase-4; assay: Activation of glucokinase in rat INS-1 cells assessed as glucose-stimulated insulin secretion; assay type: cell-based, INS1
[29] = Aqueous kinetic solubility of the compound at pH 6.5; assay type: physicochemical; details: read-out: Kinetic_solubility
[30] = Apparent permeability across RRCK cells; assay type: ADME, cell-based, Canis lupus familiaris, MDCKII-LE; details: dog, MDCK
[31] = Lipophilicity, log D of the compound at pH 7.4; assay type: physicochemical; details: buffer
Hexokinase-4 [32] = biological target: T4, Hexokinase-4 (Homo sapiens, UniProt P35557); assay: Activation of recombinant human glucokinase by G6PDH/NADP coupled assay
T4 sequence (P35557 whole entry): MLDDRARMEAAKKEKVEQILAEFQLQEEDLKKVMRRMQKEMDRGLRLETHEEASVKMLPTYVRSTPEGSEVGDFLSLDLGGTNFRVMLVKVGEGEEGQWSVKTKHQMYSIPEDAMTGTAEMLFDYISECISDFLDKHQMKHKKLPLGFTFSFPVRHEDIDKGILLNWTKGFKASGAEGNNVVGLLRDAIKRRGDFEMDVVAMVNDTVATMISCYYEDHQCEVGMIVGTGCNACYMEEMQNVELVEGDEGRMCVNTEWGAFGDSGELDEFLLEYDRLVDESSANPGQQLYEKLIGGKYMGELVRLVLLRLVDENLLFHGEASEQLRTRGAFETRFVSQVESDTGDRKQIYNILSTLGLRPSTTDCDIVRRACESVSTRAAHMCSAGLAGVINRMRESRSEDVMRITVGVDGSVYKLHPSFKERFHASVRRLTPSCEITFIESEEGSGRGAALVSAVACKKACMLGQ

Rattus norvegicus [33] = assay: Antidiabetic activity in Goto-Kakizaki rat diabetic model assessed as reduction in glucose excursion AUC at 100 mg/kg, po measured after 1 hr by oral glucose tolerance test relative to control; set-up: scale not given: the % may be the effect or the level left
[34] = Aqueous solubility of the compound at pH 8.5; assay type: physicochemical
[35] = biological target: T5, Hexokinase-4 (Homo sapiens) (UniProt P35557); assay: Activation of recombinant human glucokinase assessed as increase in enzyme Vmax for glucose by G6PDH/NADP coupled assay relative to control
T5 sequence (whole entry): T4 sequence (P35557 whole entry)

[36] = biological target: T5, Hexokinase-4 (Homo sapiens); assay: Activation of recombinant human glucokinase assessed as decrease in enzyme Km for glucose by G6PDH/NADP coupled assay relative to control

SMILES: O=C([O-])c1ccc(NC(=O)[C@H](CC2CCCC2)n2cnc(S(=O)(=O)C3CCC3)c2)nc1.[Na+]
solubility [34]: 41000 µM

SMILES: O=C(O)c1ccc(NC(=O)[C@H](CC2CCOCC2)n2cnc(S(=O)(=O)C3CC3)c2)nc1
Papp [30]: 0.9 ×10⁻⁶ cm/s
logD [31]: -1.85
fold change (FC) [35]: 1.21
fold change (FC) [36]: 0.11
pEC50 (Hexokinase-4 [32]): 5.87

SMILES: O=C(O)c1ccc(NC(=O)[C@H](CC2CCCCC2)n2cnc(S(=O)(=O)C3CCC3)c2)nc1
solubility kinetic [29]: 198 µM (≈ 91.2 µg/mL)
Papp [30]: 0.3 ×10⁻⁶ cm/s
logD [31]: 0.15
fold change (FC) [35]: 1.25
fold change (FC) [36]: 0.08
pEC50 (Hexokinase-4 [32]): 6.64

Continued, in another order:

CLint scaled [1]: < 8 mL/min/kg
Drug uptake [2]: 55%
Drug uptake [3]: 12 µL/min/mg
Drug uptake [4]: 22 µL/min/mg
Papp [5]: 1.4 ×10⁻⁶ cm/s
Papp [6]: 1.3 ×10⁻⁶ cm/s
Papp [7]: 2 ×10⁻⁶ cm/s
uptake ratio (OATP1B3): 2.3
uptake ratio (OATP1B1): 4.1
pIC50 (Hexokinase-4 [8]): 5.77
bioavailability [12]: < 5%
bioavailability [13]: < 1%
Vd [14]: 0.4 L/kg
Vd [15]: 0.8 L/kg
half-life [16]: 42 min
half-life [17]: 12 min
clearance [18]: 18 mL/min/kg
clearance [19]: 96 mL/min/kg
Cmax [20]: 12.8 ng/mL
Cmax [21]: 6350 ng/mL
Cmax [22]: 2.5 ng/mL
Cmax [23]: 1400 ng/mL
AUC(0-t) at 24 h [24]: 36.6 ng·h/mL
AUC(0-t) at 24 h [25]: 932 ng·h/mL
AUC(0-t) at 24 h [26]: 176 ng·h/mL
AUC(0-t) at 24 h [27]: 3.4 ng·h/mL
pEC50 (Hexokinase-4 [28]): 3.76
solubility kinetic [29]: 428 µM (≈ 191 µg/mL)
Papp [30]: 0.5 ×10⁻⁶ cm/s
logD [31]: -0.1
pEC50 (Hexokinase-4 [32]): 6.70
SMILES: O=C(O)c1ccc(NC(=O)[C@H](CC2CCCC2)n2cnc(S(=O)(=O)C3CCC3)c2)nc1
Activity (Rattus norvegicus [9]): 15.4%
Ratio AUC (Rattus norvegicus [10]): 3.5
Ratio AUC (Rattus norvegicus [11]): 2

logD [31]: 0.68
SMILES: O=C(O)c1ccc(NC(=O)[C@H](CC2CCCC2)n2cnc(C(F)(F)F)c2)nc1 [PF-04991532]
Activity (Rattus norvegicus [33]): 17.7%
